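Step 1: Grow cells in 96-well plates. Step 2: Expose to compound for 48 hours at 5 concentrations. Step 3: Interpolate endpoints linearly; if unreached, use highest concentration. Here, GI50 denotes the concentration required for 50% inhibition of growth.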 Activity calls are given as the source filed them. Rule as the data show it: active = GI50 up to about 1.1 µM and inactive = higher.
Columns and labels:
Experiment in all cases: NCI tumour cell line growth inhibition, 48 h
A498 = tested on: A498
MDA-MB-435 = tested on: MDA-MB-435
COLO 205 = tested on: COLO 205
UO-31 = tested on: UO-31
OVCAR-4 = tested on: OVCAR-4
HCT-15 = tested on: HCT-15
MCF7 = tested on: MCF7
SW-620 = tested on: SW-620
DU-145 = tested on: DU-145
HCT-116 = tested on: HCT-116
SNB-19 = tested on: SNB-19
MDA-N = tested on: MDA-N
SF-268 = tested on: SF-268
OVCAR-8 = tested on: OVCAR-8
NCI/ADR-RES = tested on: NCI/ADR-RES
HL-60 = tested on: HL-60
NCI-H522 = tested on: NCI-H522
MDA-MB-231 = tested on: MDA-MB-231
RPMI-8226 = tested on: RPMI-8226
SK-OV-3 = tested on: SK-OV-3

CCCCC1(N=[N+]=[N-])C(=O)C2C=CC=C3c4ccccc4N(C1=O)C32 (stereo not given) was tested, and the GI50 (A498) was > 10 µM (inactive), the GI50 (MDA-MB-435) was 19.1 µM (inactive) and the GI50 (COLO 205) was 18.5 µM (inactive). For the same molecule, the GI50 (UO-31) was 18.8 µM (inactive), the GI50 (OVCAR-4) was 21.6 µM (inactive) and the GI50 (HCT-15) was 17.2 µM. For the same molecule, the GI50 (MCF7) was 17.1 µM (inactive), the GI50 (SW-620) was 20.2 µM (inactive) and the GI50 (DU-145) was 58.5 µM (inactive). For the same molecule, the GI50 (HCT-116) was 18.1 µM (inactive), the GI50 (SNB-19) was 22.1 µM (inactive) and the GI50 (MDA-N) was 15.7 µM (inactive). For the same molecule, the GI50 (SF-268) was 19.9 µM (inactive), the GI50 (OVCAR-8) was 20.1 µM (inactive) and the GI50 (NCI/ADR-RES) was 17.7 µM (inactive). For the same molecule, the GI50 (HL-60) was 34 µM (inactive), the GI50 (NCI-H522) was 13.6 µM (inactive) and the GI50 (MDA-MB-231) was 23.6 µM (inactive). For the same molecule, the GI50 (RPMI-8226) was 17.7 µM (inactive) and the GI50 (SK-OV-3) was 25.8 µM (inactive).

With NC1CCCCC1.O=P(O)(O)C(O)/C=C/c1ccccc1 (stereo not given) the GI50 (A498) was > 100 µM (inactive), the GI50 (MDA-MB-435) was > 100 µM (inactive) and the GI50 (COLO 205) was > 100 µM (inactive). For the same molecule, the GI50 (UO-31) was > 100 µM (inactive), the GI50 (OVCAR-4) was > 100 µM (inactive) and the GI50 (HCT-15) was over 100 µM. The GI50 (MCF7) was > 100 µM (inactive), the GI50 (SW-620) was > 100 µM (inactive) and the GI50 (DU-145) was > 100 µM (inactive). The GI50 (HCT-116) was > 100 µM (inactive), the GI50 (SNB-19) was > 100 µM (inactive) and the GI50 (MDA-N) was > 100 µM (inactive). The GI50 (SF-268) was > 100 µM (inactive), the GI50 (OVCAR-8) was > 100 µM (inactive) and the GI50 (NCI/ADR-RES) was > 100 µM (inactive). For the same molecule, the GI50 (HL-60) was > 100 µM (inactive), the GI50 (NCI-H522) was > 100 µM (inactive) and the GI50 (MDA-MB-231) was > 100 µM (inactive). The GI50 (RPMI-8226) was > 100 µM (inactive) and the GI50 (SK-OV-3) was > 100 µM (inactive).

COC(=O)Nc1nc2cc(NS(=O)(=O)c3ccc(Cl)cc3)ccc2[nH]1 was tested, and the GI50 (A498) was 3.05 µM (inactive), the GI50 (MDA-MB-435) was 2.17 µM (inactive) and the GI50 (COLO 205) was 9.1 µM (inactive). For the same molecule, the GI50 (UO-31) was 11.7 µM (inactive), the GI50 (OVCAR-4) was 13 µM (inactive) and the GI50 (HCT-15) was 6.44 µM. The GI50 (MCF7) was 4.08 µM (inactive), the GI50 (SW-620) was 5.11 µM (inactive) and the GI50 (DU-145) was 20.4 µM (inactive). For the same molecule, the GI50 (HCT-116) was 2.45 µM (inactive), the GI50 (SNB-19) was 4.33 µM (inactive) and the GI50 (MDA-N) was 2.18 µM (inactive). For the same molecule, the GI50 (SF-268) was 10.4 µM (inactive), the GI50 (OVCAR-8) was 13 µM (inactive) and the GI50 (NCI/ADR-RES) was 8.59 µM (inactive). For the same molecule, the GI50 (HL-60) was 4.15 µM (inactive), the GI50 (NCI-H522) was 3.4 µM (inactive) and the GI50 (MDA-MB-231) was 8.34 µM (inactive). The GI50 (RPMI-8226) was 6.75 µM (inactive) and the GI50 (SK-OV-3) was 12.2 µM (inactive).

For CC(C#N)N(CCc1ccccc1)C(=O)c1ccccc1 (stereo not given), the GI50 (A498) was > 100 µM (inactive), the GI50 (MDA-MB-435) was > 100 µM (inactive) and the GI50 (COLO 205) was > 100 µM (inactive). The GI50 (UO-31) was 84.9 µM (inactive), the GI50 (OVCAR-4) was > 100 µM (inactive) and the GI50 (HCT-15) was over 100 µM. The GI50 (MCF7) was > 100 µM (inactive), the GI50 (SW-620) was > 100 µM (inactive) and the GI50 (DU-145) was > 100 µM (inactive). The GI50 (HCT-116) was > 100 µM (inactive), the GI50 (SNB-19) was > 100 µM (inactive) and the GI50 (MDA-N) was > 100 µM (inactive). For the same molecule, the GI50 (SF-268) was > 100 µM (inactive), the GI50 (OVCAR-8) was > 100 µM (inactive) and the GI50 (NCI/ADR-RES) was > 100 µM (inactive). For the same molecule, the GI50 (HL-60) was > 100 µM (inactive), the GI50 (NCI-H522) was > 100 µM (inactive) and the GI50 (MDA-MB-231) was > 100 µM (inactive). The GI50 (RPMI-8226) was > 100 µM (inactive) and the GI50 (SK-OV-3) was > 100 µM (inactive).

NC(=S)N/N=C\CC(O)(C(F)(F)F)C(F)(F)F was tested, and the GI50 (A498) was > 10 µM (inactive), the GI50 (MDA-MB-435) was > 10 µM (inactive) and the GI50 (COLO 205) was > 10 µM (inactive). For the same molecule, the GI50 (UO-31) was > 10 µM (inactive), the GI50 (OVCAR-4) was > 10 µM (inactive) and the GI50 (HCT-15) was over 10 µM. For the same molecule, the GI50 (MCF7) was > 10 µM (inactive), the GI50 (SW-620) was > 10 µM (inactive) and the GI50 (DU-145) was > 10 µM (inactive). The GI50 (HCT-116) was > 10 µM (inactive), the GI50 (SNB-19) was > 10 µM (inactive) and the GI50 (MDA-N) was > 10 µM (inactive). For the same molecule, the GI50 (SF-268) was > 10 µM (inactive), the GI50 (OVCAR-8) was > 10 µM (inactive) and the GI50 (NCI/ADR-RES) was > 10 µM (inactive). The GI50 (HL-60) was > 10 µM (inactive), the GI50 (NCI-H522) was > 10 µM (inactive) and the GI50 (MDA-MB-231) was > 10 µM (inactive). For the same molecule, the GI50 (RPMI-8226) was > 10 µM (inactive) and the GI50 (SK-OV-3) was > 10 µM (inactive).

In the case of CCC(C)C1NC(=O)C(NC(=O)C(CC(C)C)N(C)C(=O)[C@@H]2C=CCN2C(=O)[C@H](C)O)C(C)OC(=O)[C@H](Cc2ccc(OC)cc2)N(C)C(=O)[C@@H]2CCCN2C(=O)[C@H](CC(C)C)NC(=O)C(C)C(=O)[C@H](C(C)C)OC(=O)CC1O (stereo not given in full), the GI50 (A498) is reported as 0.00671 µM (active), the GI50 (MDA-MB-435) is reported as 0.00277 µM (active) and the GI50 (COLO 205) is reported as 0.00143 µM (active). The GI50 (UO-31) was 0.0138 µM (active), the GI50 (OVCAR-4) was 0.00234 µM (active) and the GI50 (HCT-15) was 0.0239 µM. For the same molecule, the GI50 (MCF7) was 0.00164 µM (active), the GI50 (SW-620) was 0.00308 µM (active) and the GI50 (DU-145) was 0.00501 µM (active). For the same molecule, the GI50 (HCT-116) was 0.00103 µM (active), the GI50 (SNB-19) was 0.00374 µM (active) and the GI50 (MDA-N) was 0.00293 µM (active). For the same molecule, the GI50 (SF-268) was 0.00243 µM (active), the GI50 (OVCAR-8) was 0.00467 µM (active) and the GI50 (NCI/ADR-RES) was 0.0419 µM (active). For the same molecule, the GI50 (HL-60) was 0.00299 µM (active), the GI50 (NCI-H522) was 0.00111 µM (active) and the GI50 (MDA-MB-231) was 0.00608 µM (active). For the same molecule, the GI50 (RPMI-8226) was 0.00267 µM (active) and the GI50 (SK-OV-3) was 0.00239 µM (active).

With CCN(CCCl)CCCCNc1c2ccccc2nc2ccc(OC)cc12 the GI50 (A498) was 0.379 µM (active), the GI50 (MDA-MB-435) was 0.427 µM (active) and the GI50 (COLO 205) was 0.258 µM (active). For the same molecule, the GI50 (UO-31) was 1.11 µM (active), the GI50 (OVCAR-4) was 0.7 µM (active) and the GI50 (HCT-15) was 0.752 µM. The GI50 (MCF7) was 0.0141 µM (active), the GI50 (SW-620) was 0.0664 µM (active) and the GI50 (DU-145) was 0.336 µM (active). The GI50 (HCT-116) was 0.0542 µM (active), the GI50 (SNB-19) was 0.918 µM (active) and the GI50 (MDA-N) was 0.676 µM (active). For the same molecule, the GI50 (SF-268) was 0.171 µM (active), the GI50 (OVCAR-8) was 0.305 µM (active) and the GI50 (NCI/ADR-RES) was 4.25 µM (inactive). The GI50 (HL-60) was 0.0929 µM (active), the GI50 (NCI-H522) was 0.208 µM (active) and the GI50 (MDA-MB-231) was 0.457 µM (active). The GI50 (RPMI-8226) was 0.0535 µM (active) and the GI50 (SK-OV-3) was 1.24 µM (inactive).

— ChEMBL document CHEMBL1201862, “PubChem BioAssay data set” (2004)
